The target of this assay is RET tyrosine kinase (Homo sapiens (Human), UniProt P07949). Put plainly: Assay of small molecular compounds for inhibiting the activity of RET kinase (LANCE TR-FRET). A general note: In TR-FRET formats the signal depends on donor and acceptor labels being close together.

This passage reports IC50 results from patent US11479559B2, “Urea-substituted aromatic ring-linked dioxinoquinoline compounds, preparation method and uses thereof” (BEIJING SCITECH-MQ PHARMACEUTICALS LIMITED, priority 2018, dated 2022).

Like-named read-outs stand apart in the source and are kept apart here.

For orientation: IC50 means the midpoint of a concentration-inhibition curve.

Chain of RET tyrosine kinase (P07949 29-1114): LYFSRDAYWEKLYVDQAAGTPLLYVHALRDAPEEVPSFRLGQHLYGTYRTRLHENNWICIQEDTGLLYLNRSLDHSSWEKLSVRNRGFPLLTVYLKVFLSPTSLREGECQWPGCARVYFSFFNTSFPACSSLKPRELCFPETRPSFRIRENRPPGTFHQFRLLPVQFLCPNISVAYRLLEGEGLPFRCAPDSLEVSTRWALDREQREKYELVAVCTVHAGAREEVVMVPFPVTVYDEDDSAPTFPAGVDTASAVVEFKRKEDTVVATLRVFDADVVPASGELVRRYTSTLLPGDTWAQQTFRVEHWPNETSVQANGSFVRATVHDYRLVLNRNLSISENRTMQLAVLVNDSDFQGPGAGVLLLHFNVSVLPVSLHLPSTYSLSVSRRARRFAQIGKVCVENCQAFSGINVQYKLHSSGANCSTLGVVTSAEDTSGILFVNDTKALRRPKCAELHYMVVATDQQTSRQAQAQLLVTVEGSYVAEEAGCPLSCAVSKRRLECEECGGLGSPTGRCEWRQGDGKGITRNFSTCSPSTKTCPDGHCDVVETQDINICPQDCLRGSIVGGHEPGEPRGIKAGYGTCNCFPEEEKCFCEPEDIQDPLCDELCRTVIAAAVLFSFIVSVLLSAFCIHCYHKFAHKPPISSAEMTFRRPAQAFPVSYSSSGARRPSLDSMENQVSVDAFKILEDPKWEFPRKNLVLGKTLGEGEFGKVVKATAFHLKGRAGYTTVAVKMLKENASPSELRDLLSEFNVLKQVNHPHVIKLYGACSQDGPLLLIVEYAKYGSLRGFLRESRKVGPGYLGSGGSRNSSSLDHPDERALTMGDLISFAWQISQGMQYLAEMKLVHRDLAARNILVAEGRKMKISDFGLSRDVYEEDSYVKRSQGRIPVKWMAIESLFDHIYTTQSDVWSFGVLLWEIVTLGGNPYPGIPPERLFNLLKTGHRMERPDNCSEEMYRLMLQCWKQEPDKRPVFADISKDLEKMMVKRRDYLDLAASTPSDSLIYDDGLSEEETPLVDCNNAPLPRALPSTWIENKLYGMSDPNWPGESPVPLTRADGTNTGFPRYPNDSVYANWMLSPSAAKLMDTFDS
Description: The assay is based on the LANCE TR-FRET technology of Perkin Elmer Inc., and the assay method is as follows:
2.5 μL of the gradient-diluted compounds were taken with a transfer pipette to a 384-well plate.
Addition of enzyme: 5 μL of 2× RET kinase solution (concentration was 0.8 nM) was taken with a transfer pipette to the corresponding reaction well of the 384-well plate, mixed well and pre-reacted at room temperature for 30 minutes.
2.5 μL 4× Ultra ULight™-JAK-1 (Tyr1023) Peptide (concentration was 200 nM)/ATP (concentration was 40 μM) mixture was taken with a transfer pipette to the corresponding reaction well of the 384-well plate.
The final concentration of DMSO in the reaction system was 4%.
The mixture was mixed well and then centrifuged and reacted at room temperature in dark for 60 min.
The 384-well plate was placed into the Envision plate reader and the signal was detected using the appropriate program.

For the compound `COc1cc2nccc(Oc3ccc(NC(=O)Nc4cc(C(F)(F)F)ccc4F)cc3)c2c2c1OCCO2` [Example 2, 1-(2-fluoro-5-(trifluoromethyl)phenyl)-3-(4-((5-methoxy-2,3-dihydro-[1,4]dioxino[2,3-f]quinolin-10-yl)oxy)phenyl)urea], the IC50 (read-out: RET IC50) was less than 0.05 µM.
`COc1cc2nccc(Oc3ccc(NC(=O)Nc4ccc(F)cc4)cc3)c2c2c1OCCO2` [Example 3, 1-(4-fluorophenyl)-3-(4-((5-methoxy-2,3-dihydro-[1,4]dioxino[2,3-f]quinolin-10-yl)oxy)phenyl)urea] showed a half-maximal inhibitory concentration (IC50) of 0.05 to 0.5 µM.
The same measure, in the same setting: as for `COc1cc2nccc(Oc3ccc(NC(=O)Nc4ccc(F)cc4F)cc3)c2c2c1OCCO2` [Example 4, 1-(2,4-difluorophenyl)-3-(4-((5-methoxy-2,3-dihydro-[1,4]dioxino[2,3-f]quinolin-10-yl)oxy)phenyl)urea], the figure is 0.05 to 0.5 µM.
As to `COc1cc2nccc(Oc3ccc(NC(=O)Nc4ccc(Cl)c(C(F)(F)F)c4)c(F)c3)c2c2c1OCCO2` [Example 6, 1-(4-chloro-3-(trifluoromethyl)phenyl)-3-(2-fluoro-4-((5-methoxy-2,3-dihydro-[1,4]dioxino[2,3-f]quinolin-10-yl)oxy)phenyl)urea], the IC50 (read-out: RET IC50) is less than 0.05 µM.
Consider `COCCOc1cc2nccc(Oc3ccc(NC(=O)Nc4ccc(Cl)c(C(F)(F)F)c4)cc3)c2c2c1OCCO2` [Example 8, 1-(4-chloro-3-(trifluoromethyl)phenyl)-3-(4-((5-(2-methoxyethoxy)-2,3-dihydro-[1,4]dioxino[2,3-f]quinolin-10-yl)oxy)phenyl)urea], for which, under “read-out: RET IC50”, the IC50 is less than 0.05 µM.
The compound `N#CCOc1cc2nccc(Oc3ccc(NC(=O)Nc4ccc(Cl)c(C(F)(F)F)c4)cc3)c2c2c1OCCO2` [Example 13, 1-(4-chloro-3-(trifluoromethyl)phenyl)-3-(4-((5-(cyanomethoxy)-2,3-dihydro-[1,4]dioxino[2,3-f]quinolin-10-yl)oxy)phenyl)urea] yielded a half-inhibitory concentration (IC50) of 0.05 to 0.5 µM.
On to `CC(=O)N1CCN(CCCOc2cc3nccc(Oc4ccc(NC(=O)Nc5ccc(Cl)c(C(F)(F)F)c5)cc4)c3c3c2OCCO3)CC1` [Example 22, 1-(4-((5-(3-(4-acetylpiperazin-1-yl)propoxy)-2,3-dihydro-[1,4]dioxino[2,3-f]quinolin-10-yl)oxy)phenyl)-3-(4-chloro-3-(trifluoromethyl)phenyl)urea], for which, under “read-out: RET IC50”, the IC50 is less than 0.05 µM.
For the compound `O=C(Nc1ccc(Oc2ccnc3cc(OCCCN4CCS(=O)(=O)CC4)c4c(c23)OCCO4)cc1)Nc1ccc(Cl)c(C(F)(F)F)c1` [Example 23, 1-(4-chloro-3-(trifluoromethyl)phenyl)-3-(4-((5-(3-(1,1-dioxothiomorpholino)propoxy)-2,3-dihydro-[1,4]dioxino[2,3-f]quinolin-10-yl)oxy)phenyl)urea], the IC50 lay within 0.05 to 0.5 µM.
Turning to `CC1(C)CCN(CCCOc2cc3nccc(Oc4ccc(NC(=O)Nc5ccc(Cl)c(C(F)(F)F)c5)cc4)c3c3c2OCCO3)CC1` [Example 24, 1-(4-chloro-3-(trifluoromethyl)phenyl)-3-(4-((5-(3-(4,4-dimethylpiperidin-1-yl)propoxy)-2,3-dihydro-[1,4]dioxino[2,3-f]quinolin-10-yl)oxy)phenyl)urea], the IC50 (read-out: RET IC50) is less than 0.05 µM.
Still for that read-out and setting: as for `COCCCCCCOc1cc2nccc(Oc3ccc(NC(=O)Nc4ccc(Cl)c(C(F)(F)F)c4)cc3)c2c2c1OCCO2` [Example 29, 1-(4-chloro-3-(trifluoromethyl)phenyl)-3-(4-((5-((6-methoxyhexyl)oxy)-2,3-dihydro-[1,4]dioxino[2,3-f]quinolin-10-yl)oxy)phenyl)urea], the figure is less than 0.05 µM.
`O=C(Nc1ccc(Oc2ccnc3cc(OC4COC4)c4c(c23)OCCO4)cc1)Nc1ccc(Cl)c(C(F)(F)F)c1` [Example 31] gave an IC50 of 0.05 to 0.5 µM.
Still for that read-out and setting: as for `O=C(Nc1ccc(Oc2ccnc3cc(OC4CCOC4)c4c(c23)OCCO4)cc1)Nc1ccc(Cl)c(C(F)(F)F)c1` (stereo not drawn) [Example 32, 1-(4-chloro-3-(trifluoromethyl)phenyl)-3-(4-((5-((tetrahydrofuran-3-yl)oxy)-2,3-dihydro-[1,4]dioxino[2,3-f]quinolin-10-yl)oxy)phenyl)urea], the figure is 0.05 to 0.5 µM; as for `O=C(Nc1ccc(Oc2ccnc3cc(OC4CCOCC4)c4c(c23)OCCO4)cc1)Nc1ccc(Cl)c(C(F)(F)F)c1` [Example 33, 1-(4-chloro-3-(trifluoromethyl)phenyl)-3-(4-((5-((tetrahydro-2H-pyran-4-yl)oxy)-2,3-dihydro-[1,4]dioxino[2,3-f]quinolin-10-yl)oxy)phenyl)urea], 0.05 to 0.5 µM; as for `COCCOc1cc2nccc(Oc3ccc(NC(=O)Nc4cc(C(F)(F)F)ccc4F)cc3)c2c2c1OCCO2` [Example 34, 1-(2-fluoro-5-(trifluoromethyl)phenyl)-3-(4-((5-(2-methoxyethoxy)-2,3-dihydro-[1,4]dioxino[2,3-f]quinolin-10-yl)oxy)phenyl)urea], less than 0.05 µM.
As for `CCOc1cc2nccc(Oc3ccc(NC(=O)Nc4ccc(Cl)c(C(F)(F)F)c4)c(F)c3)c2c2c1OCCO2` [Example 35, 1-(4-chloro-3-(trifluoromethyl)phenyl)-3-(4-((5-ethoxy-2,3-dihydro-[1,4]dioxino[2,3-f]quinolin-10-yl)oxy)-2-fluorophenyl)urea], the 50% inhibitory concentration (IC50) (read-out: RET IC50) is less than 0.05 µM.
For the compound `COCCOc1cc2nccc(Oc3ccc(NC(=O)Nc4ccc(Cl)c(C(F)(F)F)c4)cc3F)c2c2c1OCCO2` [Example 36, 1-(4-chloro-3-(trifluoromethyl)phenyl)-3-(3-fluoro-4-((5-(2-methoxyethoxy)-2,3-dihydro-[1,4]dioxino[2,3-f]quinolin-10-yl)oxy)phenyl)urea], under “read-out: RET IC50”, the IC50 was less than 0.05 µM.
`COCCOc1cc2nccc(Oc3ccc(NC(=O)Nc4ccc(Cl)c(C(F)(F)F)c4)c(F)c3)c2c2c1OCCO2` [Example 37, 1-(4-chloro-3-(trifluoromethyl)phenyl)-3-(2-fluoro-4-((5-(2-methoxyethoxy)-2,3-dihydro-[1,4]dioxino[2,3-f]quinolin-10-yl)oxy)phenyl)urea] registered an IC50 of less than 0.05 µM.
`COCCCOc1cc2nccc(Oc3ccc(NC(=O)Nc4ccc(Cl)c(C(F)(F)F)c4)cc3F)c2c2c1OCCO2` [Example 38, 1-(4-chloro-3-(trifluoromethyl)phenyl)-3-(3-fluoro-4-((5-(3-methoxypropoxy)-2,3-dihydro-[1,4]dioxino[2,3-f]quinolin-10-yl)oxy)phenyl)urea] displayed a half-inhibitory concentration (IC50) of 0.05 to 0.5 µM.
Still for that read-out and setting: as for `COCCCOc1cc2nccc(Oc3ccc(NC(=O)Nc4ccc(Cl)c(C(F)(F)F)c4)c(F)c3)c2c2c1OCCO2` [Example 39, 1-(4-chloro-3-(trifluoromethyl)phenyl)-3-(2-fluoro-4-((5-(3-methoxypropoxy)-2,3-dihydro-[1,4]dioxino[2,3-f]quinolin-10-yl)oxy)phenyl)urea], the figure is 0.05 to 0.5 µM.
Take `COCCCOc1cc2nccc(Oc3ccc(NC(=O)Nc4cc(C(F)(F)F)ccc4F)cc3)c2c2c1OCCO2` [Example 40, 1-(2-fluoro-5-(trifluoromethyl)phenyl)-3-(4-((5-(3-methoxypropoxy)-2,3-dihydro-[1,4]dioxino[2,3-f]quinolin-10-yl)oxy)phenyl)urea]: the IC50 (read-out: RET IC50) is less than 0.05 µM.
Compound `O=C(Nc1ccc(Oc2ccnc3cc(OCCCN4CCOCC4)c4c(c23)OCCO4)c(F)c1)Nc1ccc(Cl)c(C(F)(F)F)c1` [Example 41, 1-(4-chloro-3-(trifluoromethyl)phenyl)-3-(3-fluoro-4-((5-(3-morpholinopropoxy)-2,3-dihydro-[1,4]dioxino[2,3-f]quinolin-10-yl)oxy)phenyl)urea] came in with a concentration for half-maximal inhibition (IC50) of 0.05 to 0.5 µM.
